This note sets out measurements from US11891387B2, “Monoacylglycerol lipase modulators” (Janssen Pharmaceutica NV, priority 2020, dated 2024).

As usually defined, the pIC50 is the negative decadic logarithm of the IC50, by convention in mol/L.

In this assay the target is human MGL from HeLa cells (Homo sapiens (Human), UniProt Q99685). Kind of assay: MGL in vitro activity assay: cleavage of [glycerol-1,3-3H]-oleyl glycerol, activated carbon filtration. The class given is biochemical. As to conditions: 300 nM [Glycerol-1,3-3H]-oleyl glycerol, endogenously expressed MGL from HeLa cells, one hour incubation. How it is done: The assay used to measure the in vitro activity of MGL is adapted from the assay used for another serine hydrolase (FAAH) described in Wilson et al., 2003 (A high-throughput-compatible assay for determining the activity of fatty acid amide hydrolase. Wilson S J, Lovenberg T W, Barbier A J. Anal Biochem. 2003 Jul. 15; 318(2):270-5.). The assay consists of combining endogenously expressed MGL from HeLa cells with test compounds, adding [glycerol-1,3-^3H]-oleyl glycerol, incubating for one hour, and then measuring the amount of cleaved [1,3-^3H]-glycerol that passes through an activated carbon filter. The amount of cleaved, tritiated glycerol passing through the carbon filter is proportional to the activity of the MGL enzyme in a particular well/test condition.
Standard conditions for this assay combine 300 nM [Glycerol-1,3-^3H]-oleyl glycerol with human MGL from HeLa cells and test compounds for one hour, after which the reaction is filtered through activated carbon and tritium is measured in the flow through. The test compound concentration in screening mode is 10 μM, while the highest compound concentration in IC50 assays is determined empirically. MGL is the predominant hydrolase in HeLa cells/cell homogenates.

pIC50: −log10 of the molar value.

human MGL from HeLa cells, sequence (Q99685 whole entry): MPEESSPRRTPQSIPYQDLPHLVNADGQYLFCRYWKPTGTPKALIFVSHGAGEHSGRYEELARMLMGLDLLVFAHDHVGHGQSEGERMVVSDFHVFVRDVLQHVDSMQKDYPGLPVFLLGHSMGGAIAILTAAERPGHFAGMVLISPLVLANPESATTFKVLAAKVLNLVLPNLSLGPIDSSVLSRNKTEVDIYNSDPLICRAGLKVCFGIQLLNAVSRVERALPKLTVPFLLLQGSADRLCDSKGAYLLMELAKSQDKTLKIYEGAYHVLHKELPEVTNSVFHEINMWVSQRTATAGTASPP

In turn, `Cc1ccc(C(=O)N2CCc3c(nn(C)c3-c3cc(C(F)(F)F)nn3C)[C@@H]2C)cc1C` [Example 43, (S)-(2,7-Dimethyl-3-(1-methyl-3-(trifluoromethyl)-1H-pyrazol-5-yl)-2,4,5,7-tetrahydro-6H-pyrazolo[3,4-c]pyridin-6-yl)(3,4-dimethylphenyl)methanone] had a negative logarithm of the IC50 (pIC50) of 7.48.
Take `C[C@H]1c2nn(C)c(-c3ccnn3C3CC3)c2CCN1C(=O)c1ccc2ncccc2c1` [Example 68, (S)-(3-(1-Cyclopropyl-1H-pyrazol-5-yl)-2,7-dimethyl-2,4,5,7-tetrahydro-6H-pyrazolo[3,4-c]pyridin-6-yl)(quinolin-6-yl)methanone]: the pIC50 was 5.38.
The figure for `C[C@H]1c2nn(C)c(-c3cc(C(F)(F)F)nn3C)c2CCN1C(=O)c1cccc2nn(C)cc12` [Example 23, (S)-(2,7-Dimethyl-3-(1-methyl-3-(trifluoromethyl)-1H-pyrazol-5-yl)-2,4,5,7-tetrahydro-6H-pyrazolo[3,4-c]pyridin-6-yl)(2-methyl-2H-indazol-4-yl)methanone] is 7.08; for `Cc1ccc2c(C(=O)N3CCc4c(nn(C)c4-c4cc(C(F)(F)F)nn4C)[C@@H]3C)cccc2n1` [Example 1, (S)-(2,7-Dimethyl-3-(1-methyl-3-(trifluoromethyl)-1H-pyrazol-5-yl)-2,4,5,7-tetrahydro-6H-pyrazolo[3,4-c]pyridin-6-yl)(2-methylquinolin-5-yl)methanone] it is 7.46; for `Cn1nc(C(F)(F)F)cc1-c1c2c(nn1C)[C@@H]1CCC[C@H](C2)N1C(=O)c1n[nH]c2ncc(F)cc12` [Example 81, (5-Fluoro-1H-pyrazolo[3,4-b]pyridin-3-yl)((5R,9S)-2-methyl-3-(1-methyl-3-(trifluoromethyl)-1H-pyrazol-5-yl)-4,5,6,7,8,9-hexahydro-2H-5,9-epiminocycloocta[c]pyrazol-10-yl)methanone] it is 7.00.
The compound `COc1cccc(C(=O)N2[C@@H]3CCC[C@H]2c2nn(C)c(-c4cc(C)nn4C)c2C3)c1C` (stereo in doubt) [Example 73, ((5R,9S)-3-(1,3-Dimethyl-1H-pyrazol-5-yl)-2-methyl-4,5,6,7,8,9-hexahydro-2H-5,9-epiminocycloocta[c]pyrazol-10-yl)(3-methoxy-2-methylphenyl)methanone] gave a pIC50 of 6.64.
The same measure for `C[C@H]1c2nn(C)c(-c3cnn(C)c3C(F)(F)F)c2CCN1C(=O)c1nn(C)c2cc(F)cc(F)c12` [Example 27, (S)-(4,6-Difluoro-1-methyl-1H-indazol-3-yl)(2,7-dimethyl-3-(1-methyl-5-(trifluoromethyl)-1H-pyrazol-4-yl)-2,4,5,7-tetrahydro-6H-pyrazolo[3,4-c]pyridin-6-yl)methanone]: 5.93.
The figure for `Cn1nc(C(F)(F)F)cc1-c1c2c(nn1C)[C@@H]1CCC[C@H](C2)N1C(=O)c1nn(C)c2ncccc12` [Example 85, (1-Methyl-1H-pyrazolo[3,4-b]pyridin-3-yl)((5R,9S)-2-methyl-3-(1-methyl-3-(trifluoromethyl)-1H-pyrazol-5-yl)-4,5,6,7,8,9-hexahydro-2H-5,9-epiminocycloocta[c]pyrazol-10-yl)methanone] is 7.19; for `C[C@H]1c2nn(C)c(-c3cc(C(F)(F)F)nn3C)c2CCN1C(=O)c1cccc2c1ccn2C` [Example 45, (S)-(2,7-Dimethyl-3-(1-methyl-3-(trifluoromethyl)-1H-pyrazol-5-yl)-2,4,5,7-tetrahydro-6H-pyrazolo[3,4-c]pyridin-6-yl)(1-methyl-1H-indol-4-yl)methanone] it is 8.96; for `C[C@H]1c2nn(C)c(-c3cc(C(F)(F)F)nn3C)c2CCN1C(=O)c1ccnc2c1ccn2C` [Example 46, (S)-(2,7-Dimethyl-3-(1-methyl-3-(trifluoromethyl)-1H-pyrazol-5-yl)-2,4,5,7-tetrahydro-6H-pyrazolo[3,4-c]pyridin-6-yl)(1-methyl-1H-pyrrolo[2,3-b]pyridin-4-yl)methanone] it is 8.24.
`COc1cc(C)nc2ccc(C(=O)N3CCc4c(nn(C)c4-c4cc(C(F)(F)F)nn4C)[C@@H]3C)cc12` [Example 95, (S)-(2,7-Dimethyl-3-(1-methyl-3-(trifluoromethyl)-1H-pyrazol-5-yl)-2,4,5,7-tetrahydro-6H-pyrazolo[3,4-c]pyridin-6-yl)(4-methoxy-2-methylquinolin-6-yl)methanone] had a pIC50 of 5.00.
`C[C@H]1c2nn(C)c(-c3cc(C(F)(F)F)nn3C)c2CCN1C(=O)c1cnn2cc(F)cc(F)c12` [Example 17, (S)-(4,6-Difluoropyrazolo[1,5-a]pyridin-3-yl)(2,7-dimethyl-3-(1-methyl-3-(trifluoromethyl)-1H-pyrazol-5-yl)-2,4,5,7-tetrahydro-6H-pyrazolo[3,4-c]pyridin-6-yl)methanone]: the pIC50 is 7.70.
The same measure for `C[C@H]1c2nn(C)c(-c3cc(C(F)(F)F)nn3C)c2CCN1C(=O)c1c(F)cnc2c1ccn2C` [Example 47, (S)-(2,7-Dimethyl-3-(1-methyl-3-(trifluoromethyl)-1H-pyrazol-5-yl)-2,4,5,7-tetrahydro-6H-pyrazolo[3,4-c]pyridin-6-yl)(5-fluoro-1-methyl-1H-pyrrolo[2,3-b]pyridin-4-yl)methanone]: 9.17; for `Cn1nc(C(F)(F)F)cc1-c1c2c(nn1C)[C@@H]1CCC[C@H](C2)N1C(=O)c1noc2ccccc12` [Example 84, Benzo[d]isoxazol-3-yl((5R,9S)-2-methyl-3-(1-methyl-3-(trifluoromethyl)-1H-pyrazol-5-yl)-4,5,6,7,8,9-hexahydro-2H-5,9-epiminocycloocta[c]pyrazol-10-yl)methanone]: 8.29.
The same measure for `Cc1ccc2nc(C)cc(C(=O)N3CCc4c(nn(C)c4-c4cc(C(F)(F)F)nn4C)[C@@H]3C)c2c1` [Example 25, (S)-(2,7-Dimethyl-3-(1-methyl-3-(trifluoromethyl)-1H-pyrazol-5-yl)-2,4,5,7-tetrahydro-6H-pyrazolo[3,4-c]pyridin-6-yl)(2,6-dimethylquinolin-4-yl)methanone]: 7.05; for `C[C@H]1c2nn(C)c(-c3cnn(C)c3C(F)(F)F)c2CCN1C(=O)c1ccnc2c1ccn2C` [Example 52, (S)-(2,7-Dimethyl-3-(1-methyl-5-(trifluoromethyl)-1H-pyrazol-4-yl)-2,4,5,7-tetrahydro-6H-pyrazolo[3,4-c]pyridin-6-yl)(1-methyl-1H-pyrrolo[2,3-b]pyridin-4-yl)methanone]: 6.38; for `Cc1cc(C(=O)N2CCc3c(nn(C)c3-c3cc(C(F)(F)F)nn3C)[C@@H]2C)c2ccccc2n1` [Example 9, (S)-(2,7-Dimethyl-3-(1-methyl-3-(trifluoromethyl)-1H-pyrazol-5-yl)-2,4,5,7-tetrahydro-6H-pyrazolo[3,4-c]pyridin-6-yl)(2-methylquinolin-4-yl)methanone]: 7.92.
The same measure for `C[C@H]1c2nn(C)c(-c3cc(C(F)(F)F)nn3C)c2CCN1C(=O)c1c[nH]c2cccc(F)c12` [Example 5, (S)-(2,7-dimethyl-3-(1-methyl-3-(trifluoromethyl)-1H-pyrazol-5-yl)-2,4,5,7-tetrahydro-6H-pyrazolo[3,4-c]pyridin-6-yl)(4-fluoro-1H-indol-3-yl)methanone]: 7.43; for `COc1cc(C)ccc1C(=O)N1CCc2c(nn(C)c2-c2cc(C(F)(F)F)nn2C)[C@@H]1C` [Example 41, (S)-(2,7-Dimethyl-3-(1-methyl-3-(trifluoromethyl)-1H-pyrazol-5-yl)-2,4,5,7-tetrahydro-6H-pyrazolo[3,4-c]pyridin-6-yl)(2-methoxy-4-methylphenyl)methanone]: 7.21.
With `Cn1nc(C(F)(F)F)cc1-c1c2c(nn1C)[C@@H]1CCC[C@H](C2)N1C(=O)c1cnc2cccc(F)c2c1` [Example 83, (5-Fluoroquinolin-3-yl)((5R,9S)-2-methyl-3-(1-methyl-3-(trifluoromethyl)-1H-pyrazol-5-yl)-4,5,6,7,8,9-hexahydro-2H-5,9-epiminocycloocta[c]pyrazol-10-yl)methanone], the pIC50 was 7.40.
For the compound `C[C@H]1c2nn(C)c(-c3cnn(C)c3C(F)(F)F)c2CCN1C(=O)c1ccnc2c1cnn2C` [Example 32, (S)-(2,7-Dimethyl-3-(1-methyl-5-(trifluoromethyl)-1H-pyrazol-4-yl)-2,4,5,7-tetrahydro-6H-pyrazolo[3,4-c]pyridin-6-yl)(1-methyl-1H-pyrazolo[3,4-b]pyridin-4-yl)methanone], the pIC50 is 5.34.
The same measure for `Cc1cccn2ncc(C(=O)N3CCc4c(nn(C)c4-c4cc(C(F)(F)F)nn4C)[C@@H]3C)c12` [Example 7, (S)-(2,7-Dimethyl-3-(1-methyl-3-(trifluoromethyl)-1H-pyrazol-5-yl)-2,4,5,7-tetrahydro-6H-pyrazolo[3,4-c]pyridin-6-yl)(4-methylpyrazolo[1,5-a]pyridin-3-yl)methanone]: 7.30.
`CCn1ccc(-c2c3c(nn2C)[C@H](C)N(C(=O)c2ccc4ncccc4c2)CC3)n1` [Example 66, (S)-(3-(1-Ethyl-1H-pyrazol-3-yl)-2,7-dimethyl-2,4,5,7-tetrahydro-6H-pyrazolo[3,4-c]pyridin-6-yl)(quinolin-6-yl)methanone] showed a pIC50 of 5.40.
